Substitutions are numbered along the chain they refer to. Values belong to the molecule of their own block, whether it stands above or below them.
Legend:
RXRα LBD = experiment: SPR heterodimerization of PPARγ LBD proteins with immobilized RXRα LBD; type: binding
Experimental: The transcriptional activity of PPARγ is regulated by heterodimer formation with RXRα and the recruitment of co-regulators.
(§1) The binding affinities of PPARγ LBD with lobeglitazone, RXRα and MED1 were investigated by SPR kinetics experiments. All SPR experiments were conducted at 25 °C in a Biacore T200 system (GE Healthcare). For immobilization, an amine coupling kit containing 0.1 M N-hydroxysuccinimide and 0.4 M 1-ethyl-3-(3-dimethylaminopropyl) carbodiimide hydrochloride on a CM5 sensor chip with HBS-EP (HEPES-buffered saline with EDTA and surfactant P20) buffer (10 mM HEPES pH 7.5, 150 mM NaCl, 3 mM EDTA, 0.005% tween 20) was used according to the manufacturer’s protocol (GE Healthcare). […] The remaining activated carboxyl groups on the CM5 sensor chip surface were deactivated with 1 M ethanolamine at pH 8.5 for 400 s. The control experiment was treated identically with reference flow cell 1 or 3 without proteins and the response by the control was subtracted from each sample dataset. […] The sensor chip surface was regenerated for 5 s with 5 mM NaOH between cycles. […] The SPR response data were fit to the simple bimolecular 1:1 Langmuir isotherm binding model to determine the equilibrium dissociation constant (KD) using Biacore T200 evaluation software 3.0 (GE Healthcare).

MED1 peptide = experiment: SPR binding of PPARγ LBD proteins to immobilized MED1 co-activator peptide
Experimental: Next, we evaluated the interaction between PPARγ LBD and MED1 co-activator peptides containing the LXXLL motif, where X represents any amino acid residue, by SPR (Figure 3D–F and Figure S8).
as §1

PPARγ LBD WT = target: T1, PPARγ LBD WT (Homo sapiens, UniProt P37231); experiment: ITC binding of endogenous ligands to PPARγ LBD WT; conditions: PBS pH 7.2, 25 °C, ligand 0.9 mM
T1 construct: PPARγ LBD (residues 195–477 in PPARγ1 numbering) was cloned into the expression vector pET-28b(+); made in house; host or cells: Escherichia coli Rosetta 2(DE3)
T1 sequence (P37231 195-477 isoform P37231-2): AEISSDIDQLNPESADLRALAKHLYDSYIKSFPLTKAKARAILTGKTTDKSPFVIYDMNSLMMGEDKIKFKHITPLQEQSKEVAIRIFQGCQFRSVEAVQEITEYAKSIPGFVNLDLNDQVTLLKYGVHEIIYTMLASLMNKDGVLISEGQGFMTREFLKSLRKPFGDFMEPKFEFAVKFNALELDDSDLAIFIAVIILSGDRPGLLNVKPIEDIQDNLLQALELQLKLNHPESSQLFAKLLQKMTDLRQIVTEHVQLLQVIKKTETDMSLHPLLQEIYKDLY
Experimental: (§2) Since PPARγ is physiologically regulated by endogenous ligands, it is possible that the activation of PPARγ mutants would be induced upon binding to known endogenous PPARγ ligands. […] […]. […] […].
(§3) All the measurements were conducted in the buffer of PBS pH 7.2 at 25 °C. The ligands filled in the syringe were titrated into the proteins in the cell using 19 injections of 2 μL and an initial injection of 0.4 μL with 150 s equilibration between injections. The final protein concentrations of PPARγ LBD WT and mutants were 60 μM for 15d-PGJ2 at the ligand concentration of 900 μM and 45 μM for 13S-HODE at the ligand concentration of 900 μM, respectively. The obtained data were analyzed using Origin 7.0 software.

PPARγ LBD F287Y = target: T2, PPARγ LBD F287Y (Homo sapiens, UniProt P37231, F315Y); experiment: ITC binding of endogenous ligands to PPARγ LBD F287Y; conditions: PBS pH 7.2, 25 °C, ligand 0.9 mM
T2 construct: PPARγ LBD (residues 195–477 in PPARγ1 numbering) was cloned into the expression vector pET-28b(+); made in house; host or cells: Escherichia coli Rosetta 2(DE3)
T2 sequence (P37231 195-477 isoform P37231-2 F287Y): T1 sequence (P37231 195-477 isoform P37231-2) with F93Y
Experimental: as §2, §3

PPARγ LBD C285Y = target: T3, PPARγ LBD C285Y (Homo sapiens, UniProt P37231, C313Y); experiment: ITC binding of endogenous ligands to PPARγ LBD C285Y; conditions: PBS pH 7.2, 25 °C, ligand 0.9 mM
T3 construct: PPARγ LBD (residues 195–477 in PPARγ1 numbering) was cloned into the expression vector pET-28b(+); made in house; host or cells: Escherichia coli Rosetta 2(DE3)
T3 sequence (P37231 195-477 isoform P37231-2 C285Y): T1 sequence (P37231 195-477 isoform P37231-2) with C91Y
Experimental: as §2, §3

PPARγ LBD Q286P = target: T4, PPARγ LBD Q286P (Homo sapiens, UniProt P37231, Q314P); experiment: ITC binding of endogenous ligands to PPARγ LBD Q286P; conditions: PBS pH 7.2, 25 °C, ligand 0.9 mM
T4 construct: PPARγ LBD (residues 195–477 in PPARγ1 numbering) was cloned into the expression vector pET-28b(+); made in house; host or cells: Escherichia coli Rosetta 2(DE3)
T4 sequence (P37231 195-477 isoform P37231-2 Q286P): T1 sequence (P37231 195-477 isoform P37231-2) with Q92P
Experimental: as §2, §3

PPARγ LBD R288H = target: T5, PPARγ LBD R288H (Homo sapiens, UniProt P37231, R316H); experiment: ITC binding of endogenous ligands to PPARγ LBD R288H; conditions: PBS pH 7.2, 25 °C, ligand 0.9 mM
T5 construct: PPARγ LBD (residues 195–477 in PPARγ1 numbering) was cloned into the expression vector pET-28b(+); made in house; host or cells: Escherichia coli Rosetta 2(DE3)
T5 sequence (P37231 195-477 isoform P37231-2 R288H): T1 sequence (P37231 195-477 isoform P37231-2) with R94H
Experimental: as §2, §3

PPARγ LBD S289C = target: T6, PPARγ LBD S289C (Homo sapiens, UniProt P37231, S317C); experiment: ITC binding of endogenous ligands to PPARγ LBD S289C; conditions: PBS pH 7.2, 25 °C, ligand 0.9 mM
T6 construct: PPARγ LBD (residues 195–477 in PPARγ1 numbering) was cloned into the expression vector pET-28b(+); made in house; host or cells: Escherichia coli Rosetta 2(DE3)
T6 sequence (P37231 195-477 isoform P37231-2 S289C): T1 sequence (P37231 195-477 isoform P37231-2) with S95C
Experimental: as §2, §3

PPARγ LBD R280C = target: T7, PPARγ LBD R280C (Homo sapiens, UniProt P37231, R308C); experiment: ITC binding of endogenous ligands to PPARγ LBD R280C; conditions: PBS pH 7.2, 25 °C, ligand 0.9 mM
T7 construct: PPARγ LBD (residues 195–477 in PPARγ1 numbering) was cloned into the expression vector pET-28b(+); made in house; host or cells: Escherichia coli Rosetta 2(DE3)
T7 sequence (P37231 195-477 isoform P37231-2 R280C): T1 sequence (P37231 195-477 isoform P37231-2) with R86C
Experimental: as §2, §3

[1] = target: MED1 co-activator peptide containing the LXXLL motif; experiment: SPR; MED1 peptide amine-coupled to a CM5 chip (about 60 RU); PPARγ LBD WT or mutant injected at 78 nM to 10 μM, 30 μL/min, 120 s, dissociation 400 s; Biacore T200, 25 °C; 50 mM Tris-HCl pH 7.5, 150 mM NaCl, 1 mM TCEP, 0.005% tween 20; 1:1 Langmuir model
PPARγ LBD Q286E = target: T8, PPARγ LBD Q286E (Homo sapiens, UniProt P37231, Q314E); experiment: ITC binding of endogenous ligands to PPARγ LBD Q286E; conditions: PBS pH 7.2, 25 °C, ligand 0.9 mM
T8 construct: PPARγ LBD (residues 195–477 in PPARγ1 numbering) was cloned into the expression vector pET-28b(+); made in house; host or cells: Escherichia coli Rosetta 2(DE3)
T8 sequence (P37231 195-477 isoform P37231-2 Q286E): T1 sequence (P37231 195-477 isoform P37231-2) with Q92E
Experimental: as §2, §3

PPARγ LBD R288C = target: T9, PPARγ LBD R288C (Homo sapiens, UniProt P37231, R316C); experiment: ITC binding of endogenous ligands to PPARγ LBD R288C; conditions: PBS pH 7.2, 25 °C, ligand 0.9 mM
T9 construct: PPARγ LBD (residues 195–477 in PPARγ1 numbering) was cloned into the expression vector pET-28b(+); made in house; host or cells: Escherichia coli Rosetta 2(DE3)
T9 sequence (P37231 195-477 isoform P37231-2 R288C): T1 sequence (P37231 195-477 isoform P37231-2) with R94C
Experimental: as §2, §3

[2] = target: T10, PPARγ LBD WT (peroxisome proliferator-activated receptor gamma ligand-binding domain, wild-type) (human, UniProt P37231-2 195-477); experiment: SPR; RXRα LBD amine-coupled to a CM5 chip (about 600 RU); PPARγ LBD WT or mutant injected, 30 μL/min, 120 s, dissociation 500 s; Biacore T200, 25 °C; 50 mM Tris-HCl pH 7.5, 150 mM NaCl, 1 mM TCEP, 0.005% tween 20; 1:1 Langmuir model; conditions: both partners purified
T10 construct: numbers count on: the PPARγ1 isoform; pET-28b(+) between Nde1 and Xho1; also called PPARγ WT; source: E. coli Rosetta 2(DE3), purified (Ni2+ HiTrap chelating, thrombin cleavage, Superdex200 gel filtration); not shown: His6, N-terminal, cleaved
T10 sequence (looked up): T1 sequence (P37231 195-477 isoform P37231-2)

Molecule: CCCCCC=CC=C1C(=O)C=C[C@@H]1CC=CCCCC(=O)O [15d-PGJ2, 15-deoxy-∆^12,14-prostaglandin J2]
- Kd (PPARγ LBD WT): 51 µM
- Kd (PPARγ LBD F287Y): 65.3 µM
- Kd (PPARγ LBD C285Y): 162 µM
- Kd (PPARγ LBD Q286P): 201 µM
- Kd (PPARγ LBD R288H): > 201 µM
- Kd (PPARγ LBD S289C): 42.9 µM
- Kd (PPARγ LBD R280C): > 201 µM

Molecule: PPARγ LBD Q286E (from UniProt P37231-2 195-477) (domain or fragment)
- Kd [1]: 5.61 µM

Molecule: CCCCC[C@H](O)/C=C/C=C\CCCCCCCC(=O)O [13S-HODE, 13S-hydroxy-9Z,11E-octadecadienoic acid]
- Kd (PPARγ LBD WT): 14.6 µM
- Kd (PPARγ LBD F287Y): 27.7 µM
- Kd (PPARγ LBD C285Y): 42.7 µM
- Kd (PPARγ LBD Q286E): 45.9 µM
- Kd (PPARγ LBD Q286P): > 201 µM
- Kd (PPARγ LBD R288H): 67.1 µM
- Kd (PPARγ LBD S289C): > 201 µM
- Kd (PPARγ LBD R288C): > 201 µM
- Kd (PPARγ LBD R280C): > 201 µM

B1: RXRα LBD (retinoid X receptor α ligand-binding domain) (domain or fragment, UniProt P19793 223-462, looked up)
chain: TSSANEDMPVERILEAELAVEPKTETYVEANMGLNPSSPNDPVTNICQAADKQLFTLVEWAKRIPHFSELPLDDQVILLRAGWNELLIASFSHRSIAVKDGILLATGLHVHRNSAHSAGVGAIFDRVLTELVSKMRDMQMDKTELGCLRAIVLFNPDSKGLSNPAEVEALREKVYASLEAYCKHKYPEQPGRFAKLLLRLPALRSIGLKCLEHLFFFKLIGDTPIDTFLMEMLEAPHQMT
- Kd [2]: 0.0579 µM

The next lines start with results.

- kd for RXRα LBD (RXRα LBD): 0.0223 s⁻¹
- Kd (RXRα LBD; 25 °C, RXRα LBD immobilized): 0.0579 µM
- ka for MED1 peptide (MED1 peptide): 146000 M⁻¹ s⁻¹
- kd for MED1 peptide (MED1 peptide): 1.24 s⁻¹
- Kd (MED1 peptide; 25 °C, MED1 peptide immobilized): 8.45 µM
Molecule: PPARγ LBD WT: recombinant human PPARγ ligand-binding domain (residues 195–477), wild-type
- ka for RXRα LBD (RXRα LBD): 396000 M⁻¹ s⁻¹

- Kd [1]: 8.45 µM
Molecule: PPARγ LBD WT (peroxisome proliferator-activated receptor gamma ligand-binding domain, wild-type) (from UniProt P37231-2 195-477) (domain or fragment)

From paper PMC7761077, “Differential Effects of Cancer-Associated Mutations Enriched in Helix H3 of PPARγ” (Cancers, 2020)
